Source: the supplement of paper PMC10307832

Assays:
Assay in all cases: relative viability (nuclei count vs DMSO), 5 days (fraction); higher = more cells survive
NCI-H2087 = system: NCI-H2087
Summary of the method: (§1)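 Relative viability is defined as nuclei in treated wells over nuclei in vehicle wells. Duplicate plates were run and medians reported. Lung cancer cell lines in 1536-well plates were dosed by pin tool one day after seeding, with one drug or with a fixed anchor-drug dose plus five library-drug doses (not always all listed) in √10 steps, and nuclei were counted after 5 days.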

RERF-LC-KJ = system: RERF-LC-KJ
Summary of the method: as §1

NCI-H520 = system: NCI-H520
Summary of the method: as §1

NCI-H2126 = system: NCI-H2126
Summary of the method: as §1

H3255 = system: H3255
Summary of the method: as §1

NCI-H650 = system: NCI-H650
Summary of the method: as §1

NCI-H661 = system: NCI-H661
Summary of the method: as §1

LC-2-ad = system: LC-2-ad
Summary of the method: as §1

EPLC-272H = system: EPLC-272H
Summary of the method: as §1

NCI-H23 = system: NCI-H23
Summary of the method: as §1

HCC-78 = system: HCC-78
Summary of the method: as §1

NCI-H1915 = system: NCI-H1915
Summary of the method: as §1

NCI-H2405 = system: NCI-H2405
Summary of the method: as §1

HCC-827 = system: HCC-827
Summary of the method: as §1

201T = system: 201T
Summary of the method: as §1

COR-L 105 = system: COR-L 105
Summary of the method: as §1

NCI-H1666 = system: NCI-H1666
Summary of the method: as §1

PC-14 = system: PC-14
Summary of the method: as §1

NCI-H647 = system: NCI-H647
Summary of the method: as §1

ChaGo-K-1 = system: ChaGo-K-1
Summary of the method: as §1

NCI-H2347 = system: NCI-H2347
Summary of the method: as §1

LCLC-97TM1 = system: LCLC-97TM1
Summary of the method: as §1

CCN(CC)CCCCNc1ncc2cc(-c3cc(OC)cc(OC)c3)c(NC(=O)NC(C)(C)C)nc2n1 + N=C(N)NC(=N)NCCc1ccccc1 [Phenformin] (partner 250 µM)
relative viability (NCI-H2087; first compound 0.01 µM): 0.42
relative viability (NCI-H2087; first compound 0.03162 µM): 0.537
relative viability (NCI-H2087; first compound 0.1 µM): 0.536
relative viability (NCI-H2087; first compound 0.3162 µM): 0.522
relative viability (NCI-H2087; first compound 1 µM): 0.429
relative viability (RERF-LC-KJ; first compound 0.01 µM): 0.389
relative viability (RERF-LC-KJ; first compound 0.03162 µM): 0.463
relative viability (RERF-LC-KJ; first compound 0.1 µM): 0.469
relative viability (RERF-LC-KJ; first compound 0.3162 µM): 0.471
relative viability (RERF-LC-KJ; first compound 1 µM): 0.469
relative viability (NCI-H520; first compound 0.01 µM): 0.453
relative viability (NCI-H520; first compound 0.03162 µM): 0.519
relative viability (NCI-H520; first compound 0.1 µM): 0.623
relative viability (NCI-H520; first compound 0.3162 µM): 0.335
relative viability (NCI-H520; first compound 1 µM): 0.191
relative viability (NCI-H2126; first compound 0.01 µM): 0.496
relative viability (NCI-H2126; first compound 0.03162 µM): 0.52
relative viability (NCI-H2126; first compound 0.1 µM): 0.551
relative viability (NCI-H2126; first compound 0.3162 µM): 0.623
relative viability (NCI-H2126; first compound 1 µM): 0.515
relative viability (H3255; first compound 0.01 µM): 0.347
relative viability (H3255; first compound 0.03162 µM): 0.336
relative viability (H3255; first compound 0.1 µM): 0.27
relative viability (H3255; first compound 0.3162 µM): 0.408
relative viability (H3255; first compound 1 µM): 0.356
relative viability (NCI-H650; first compound 0.01 µM): 0.417
relative viability (NCI-H650; first compound 0.03162 µM): 0.442
relative viability (NCI-H650; first compound 0.1 µM): 0.449
relative viability (NCI-H650; first compound 0.3162 µM): 0.47
relative viability (NCI-H650; first compound 1 µM): 0.451
relative viability (NCI-H661; first compound 0.01 µM): 0.289
relative viability (NCI-H661; first compound 0.03162 µM): 0.297
relative viability (NCI-H661; first compound 0.1 µM): 0.27
relative viability (NCI-H661; first compound 0.3162 µM): 0.291
relative viability (NCI-H661; first compound 1 µM): 0.278
relative viability (LC-2-ad; first compound 0.01 µM): 0.625
relative viability (LC-2-ad; first compound 0.03162 µM): 0.55
relative viability (LC-2-ad; first compound 0.1 µM): 0.586
relative viability (LC-2-ad; first compound 0.3162 µM): 0.629
relative viability (LC-2-ad; first compound 1 µM): 0.483
relative viability (EPLC-272H; first compound 0.01 µM): 0.324
relative viability (EPLC-272H; first compound 0.03162 µM): 0.3
relative viability (EPLC-272H; first compound 0.1 µM): 0.236
relative viability (EPLC-272H; first compound 0.3162 µM): 0.296
relative viability (EPLC-272H; first compound 1 µM): 0.288
relative viability (NCI-H23; first compound 0.01 µM): 0.804
relative viability (NCI-H23; first compound 0.03162 µM): 0.878
relative viability (NCI-H23; first compound 0.1 µM): 0.791
relative viability (NCI-H23; first compound 0.3162 µM): 0.879
relative viability (NCI-H23; first compound 1 µM): 0.781
relative viability (HCC-78; first compound 0.01 µM): 0.646
relative viability (HCC-78; first compound 0.03162 µM): 0.732
relative viability (HCC-78; first compound 0.1 µM): 0.663
relative viability (HCC-78; first compound 0.3162 µM): 0.805
relative viability (HCC-78; first compound 1 µM): 0.631
relative viability (NCI-H1915; first compound 0.01 µM): 0.376
relative viability (NCI-H1915; first compound 0.03162 µM): 0.377
relative viability (NCI-H1915; first compound 0.1 µM): 0.365
relative viability (NCI-H1915; first compound 0.3162 µM): 0.373
relative viability (NCI-H1915; first compound 1 µM): 0.337
relative viability (NCI-H2405; first compound 0.01 µM): 0.38
relative viability (NCI-H2405; first compound 0.03162 µM): 0.412
relative viability (NCI-H2405; first compound 0.1 µM): 0.518
relative viability (NCI-H2405; first compound 0.3162 µM): 0.427
relative viability (NCI-H2405; first compound 1 µM): 0.315
relative viability (HCC-827; first compound 0.01 µM): 0.437
relative viability (HCC-827; first compound 0.03162 µM): 0.422
relative viability (HCC-827; first compound 0.1 µM): 0.417
relative viability (HCC-827; first compound 0.3162 µM): 0.467
relative viability (HCC-827; first compound 1 µM): 0.426
relative viability (201T; first compound 0.01 µM): 0.477
relative viability (201T; first compound 0.03162 µM): 0.479
relative viability (201T; first compound 0.1 µM): 0.51
relative viability (201T; first compound 0.3162 µM): 0.47
relative viability (201T; first compound 1 µM): 0.376
relative viability (COR-L 105; first compound 0.01 µM): 0.476
relative viability (COR-L 105; first compound 0.03162 µM): 0.521
relative viability (COR-L 105; first compound 0.1 µM): 0.47
relative viability (COR-L 105; first compound 0.3162 µM): 0.615
relative viability (COR-L 105; first compound 1 µM): 0.421
relative viability (NCI-H1666; first compound 0.01 µM): 0.582
relative viability (NCI-H1666; first compound 0.03162 µM): 0.562
relative viability (NCI-H1666; first compound 0.1 µM): 0.574
relative viability (NCI-H1666; first compound 0.3162 µM): 0.644
relative viability (NCI-H1666; first compound 1 µM): 0.507
relative viability (PC-14; first compound 0.01 µM): 0.439
relative viability (PC-14; first compound 0.03162 µM): 0.426
relative viability (PC-14; first compound 0.1 µM): 0.661
relative viability (PC-14; first compound 0.3162 µM): 0.87
relative viability (PC-14; first compound 1 µM): 0.387
relative viability (NCI-H647; first compound 0.01 µM): 0.451
relative viability (NCI-H647; first compound 0.03162 µM): 0.59
relative viability (NCI-H647; first compound 0.1 µM): 0.556
relative viability (NCI-H647; first compound 0.3162 µM): 0.804
relative viability (NCI-H647; first compound 1 µM): 0.239
relative viability (ChaGo-K-1; first compound 0.01 µM): 0.541
relative viability (ChaGo-K-1; first compound 0.03162 µM): 0.45
relative viability (ChaGo-K-1; first compound 0.1 µM): 0.585
relative viability (ChaGo-K-1; first compound 0.3162 µM): 0.47
relative viability (ChaGo-K-1; first compound 1 µM): 0.474
relative viability (NCI-H2347; first compound 0.01 µM): 0.381
relative viability (NCI-H2347; first compound 0.03162 µM): 0.24
relative viability (NCI-H2347; first compound 0.1 µM): 0.278
relative viability (NCI-H2347; first compound 0.3162 µM): 0.505
relative viability (NCI-H2347; first compound 1 µM): 0.379
relative viability (LCLC-97TM1; first compound 0.01 µM): 0.465
relative viability (LCLC-97TM1; first compound 0.03162 µM): 0.42
relative viability (LCLC-97TM1; first compound 0.1 µM): 0.514
relative viability (LCLC-97TM1; first compound 0.3162 µM): 0.428
relative viability (LCLC-97TM1; first compound 1 µM): 0.506
